Measurements as given in PubChem BioAssay (NCI).
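Five compound concentrations were applied to cells in 96-well plates for 48 hours; endpoints were derived by simple linear interpolation of the resulting dose-response curve. TGI: total growth inhibition.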

Legend:
Experiment in all cases: DTP human tumour cell line panel, 48 h
SK-OV-3 ovarian = system: SK-OV-3 ovarian
LOX IMVI melanoma = system: LOX IMVI melanoma
SNB-19 CNS = system: SNB-19 CNS
SF-539 CNS = system: SF-539 CNS
HOP-92 NSCLC = system: HOP-92 NSCLC
T-47D breast = system: T-47D breast
SNB-75 CNS = system: SNB-75 CNS
KM12 colon = system: KM12 colon
CCRF-CEM leukemia = system: CCRF-CEM leukemia
EKVX NSCLC = system: EKVX NSCLC
A549 NSCLC = system: A549 NSCLC
HCC-2998 colon = system: HCC-2998 colon
PC-3 prostate = system: PC-3 prostate
OVCAR-8 ovarian = system: OVCAR-8 ovarian
SF-268 CNS = system: SF-268 CNS
SK-MEL-5 melanoma = system: SK-MEL-5 melanoma
SK-MEL-28 melanoma = system: SK-MEL-28 melanoma
COLO 205 colon = system: COLO 205 colon
MDA-N = system: MDA-N
MALME-3M melanoma = system: MALME-3M melanoma
UACC-257 melanoma = system: UACC-257 melanoma
HCT-116 colon = system: HCT-116 colon
RXF 393 renal = system: RXF 393 renal
786-0 renal = system: 786-0 renal
ACHN renal = system: ACHN renal
DU-145 prostate = system: DU-145 prostate
A498 renal = system: A498 renal
CAKI-1 renal = system: CAKI-1 renal
HOP-62 NSCLC = system: HOP-62 NSCLC
MCF7 breast = system: MCF7 breast
OVCAR-5 ovarian = system: OVCAR-5 ovarian
NCI-H226 lung = system: NCI-H226 lung
HL-60(TB) leukemia = system: HL-60(TB) leukemia
SF-295 CNS = system: SF-295 CNS
K-562 leukemia = system: K-562 leukemia
HT29 colon = system: HT29 colon
SW-620 colon = system: SW-620 colon
SR leukemia = system: SR leukemia
NCI-H460 lung = system: NCI-H460 lung
MOLT-4 leukemia = system: MOLT-4 leukemia
OVCAR-3 ovarian = system: OVCAR-3 ovarian
MDA-MB-231 breast = system: MDA-MB-231 breast
RPMI-8226 leukemia = system: RPMI-8226 leukemia
NCI-H23 lung = system: NCI-H23 lung
M14 melanoma = system: M14 melanoma
MDA-MB-435 = system: MDA-MB-435
SN12C renal = system: SN12C renal
UACC-62 melanoma = system: UACC-62 melanoma
NCI/ADR-RES ovarian = system: NCI/ADR-RES ovarian
HCT-15 colon = system: HCT-15 colon
HS 578T breast = system: HS 578T breast
U251 CNS = system: U251 CNS
TK-10 renal = system: TK-10 renal
IGROV1 ovarian = system: IGROV1 ovarian
SK-MEL-2 melanoma = system: SK-MEL-2 melanoma
UO-31 renal = system: UO-31 renal
OVCAR-4 ovarian = system: OVCAR-4 ovarian
NCI-H522 lung = system: NCI-H522 lung
BT-549 breast = system: BT-549 breast

Measured: TGI

Nc1ccccc1CC(O)C(=O)O (centres undefined)
not listed: IGROV1 ovarian | SK-MEL-2 melanoma | UO-31 renal | OVCAR-4 ovarian | NCI-H522 lung | BT-549 breast
> 100 µM: all other assays above

Nc1ncnc2c1nnn2C1CCC(CP(=O)(O)O)C1 (centres undefined)
not listed: A498 renal | HS 578T breast | NCI-H522 lung | BT-549 breast
> 100 µM: all other assays above

O=C1c2cc3c(cc2CC12Cc1ccc4c(c1C2=O)CCCC4)CCCC3 (centres undefined)
87.4 µM: SK-OV-3 ovarian
59.7 µM: A498 renal
62.8 µM: OVCAR-4 ovarian
64.2 µM: HOP-92 NSCLC
60.5 µM: U251 CNS
46.1 µM: 786-0 renal
not listed: KM12 colon | COLO 205 colon | NCI-H226 lung | SN12C renal | UACC-62 melanoma | BT-549 breast
> 100 µM: all other assays above

CCSCCCN(CCCSCC)CCCSCC
80.4 µM: HOP-92 NSCLC
not listed: EKVX NSCLC | MALME-3M melanoma | RXF 393 renal | ACHN renal | A498 renal | CAKI-1 renal | NCI-H226 lung | RPMI-8226 leukemia | HS 578T breast | TK-10 renal | SK-MEL-2 melanoma
> 100 µM: all other assays above
